Assay results: patent publication US9169254B2, “Spiroimidazolone derivative” (Chugai Seiyaku Kabushiki Kaisha, priority 2009, dated 2015)

What follows are compounds tested against T1, human PTH1 receptor (Homo sapiens, UniProt Q03431) (assay: In vitro cAMP signal activity in HKRK-B7 cells (LLC-PK1 cells overexpressing the human PTH1 receptor)). Conditions: HKRK-B7 cells; compound at 1×10^−3 M; cAMP produced as percentage of that produced by hPTH(1-34) at 100 nM.
T1 sequence (Q03431 27-593): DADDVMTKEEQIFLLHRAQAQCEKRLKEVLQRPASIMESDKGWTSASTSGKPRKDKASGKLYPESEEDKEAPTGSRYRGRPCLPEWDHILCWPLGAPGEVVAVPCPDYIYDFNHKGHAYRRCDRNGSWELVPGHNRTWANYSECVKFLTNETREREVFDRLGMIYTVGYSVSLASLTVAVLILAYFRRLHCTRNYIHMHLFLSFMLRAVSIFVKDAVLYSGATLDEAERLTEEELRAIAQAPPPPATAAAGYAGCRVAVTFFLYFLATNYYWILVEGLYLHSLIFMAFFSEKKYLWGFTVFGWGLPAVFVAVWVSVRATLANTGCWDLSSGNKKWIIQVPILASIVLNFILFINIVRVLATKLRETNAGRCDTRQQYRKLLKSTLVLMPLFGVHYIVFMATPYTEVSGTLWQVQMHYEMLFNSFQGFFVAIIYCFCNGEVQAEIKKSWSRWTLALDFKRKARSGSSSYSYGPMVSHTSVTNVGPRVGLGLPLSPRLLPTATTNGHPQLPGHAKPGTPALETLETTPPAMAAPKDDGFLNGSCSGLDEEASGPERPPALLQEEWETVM
Format: cell-based

| SMILES | cAMP production activity (%) |
| --- | --- |
| Cc1cc(N2NCCC2=O)ccc1/C=C/S(=O)(=O)N1CCC2(CC1)N=C([C@H]1CC[C@H](C)CC1)NC2=O [Compound 588, 2-(4-methyl-cyclohexyl)-8-{(E)-2-[2-methyl-4-(5-oxo-pyrazolidin-1-yl)-phenyl]-ethenesulfonyl}-1,3,8-triaza-spiro[4.5]dec-1-en-4-one] | 77 |
| Cc1cc(NC2=NCCS2)cc(C)c1/C=C/S(=O)(=O)N1CCC2(CC1)N=C(C1CCCCC1)NC2=O [Compound 738, 2-Cyclohexyl-8-{(E)-2-[4-(4,5-dihydro-thiazol-2-ylamino)-2,6-dimethyl-phenyl]-ethenesulfonyl}-1,3,8-triaza-spiro[4.5]dec-1-en-4-one] | 79 |
| CC(=O)Nc1ccc(CCS(=O)(=O)N2CCC3(CC2)N=C(c2cccc(C(F)(F)F)c2)NC3=O)c(C)c1 [Compound 298, N-(3-methyl-4-{2-[4-oxo-2-(3-trifluoromethyl-phenyl)-1,3,8-triaza-spiro[4.5]dec-1-ene-8-sulfonyl]-ethyl}-phenyl)-acetamide] | 63 |
| CCC[C@@H]1CCC[C@H](C2=NC3(CCN(S(=O)(=O)CCc4ccc(NC(C)=O)cc4C)CC3)C(=O)N2)C1 [Compound 923, N-(3-methyl-4-{2-[4-oxo-2-((1S,3R)-3-propyl-cyclohexyl)-1,3,8-triaza-spiro[4.5]dec-1-ene-8-sulfonyl]-ethyl}-phenyl)-acetamide] | 84 |
| O=C(Cc1ccccn1)N1CCCC(C2=NC3(CCN(S(=O)(=O)CCc4cccc5ccccc45)CC3)C(=O)N2)C1 (stereo not shown) [Compound 435, 8-(2-naphthalen-1-yl-ethanesulfonyl)-2-[1-(2-pyridin-2-yl-acetyl)-piperidin-3-yl]-1,3,8-triaza-spiro[4.5]dec-1-en-4-one] | 17 |
| Cc1cc(C(=O)N(C)C)ccc1CCS(=O)(=O)N1CCC2(CC1)N=C(c1cc(Cl)cc(C(F)(F)F)c1)NC2=O [Compound 127, 4-{2-[2-(3-chloro-5-trifluoromethyl-phenyl)-4-oxo-1,3,8-triaza-spiro[4.5]dec-1-ene-8-sulfonyl]-ethyl}-3,N,N-trimethyl-benzamide] | 72 |
| Cc1cc(CN2C(=O)CNC2=O)cc(C)c1/C=C/S(=O)(=O)N1CCC2(CC1)N=C(C1CCC(C)CC1)NC2=O (stereo not shown) [Compound 518, 3-(3,5-dimethyl-4-{(E)-2-[2-(4-methyl-cyclohexyl)-4-oxo-1,3,8-triaza-spiro[4.5]dec-1-ene-8-sulfonyl]-vinyl}-benzyl)-imidazolidine-2,4-dione] | 68 |
| Cc1cc(C(=O)N2CCC(O)(CF)CC2)cc(C)c1/C=C/S(=O)(=O)N1CCC2(CC1)N=C(c1ccc(C(F)(F)F)c(Cl)c1)NC2=O [Compound 1241, 2-(3-chloro-4-trifluoromethyl-phenyl)-8-{(E)-2-[4-(4-fluoromethyl-4-hydroxy-piperidine-1-carbonyl)-2,6-dimethyl-phenyl]-ethenesulfonyl}-1,3,8-triaza-spiro[4.5]dec-1-en-4-one] | 101 |
| CCCCCCC(CCC)CCC1=NC2(CCN(S(=O)(=O)CCc3c(C)cc(N(C)C(N)=O)cc3C)CC2)C(=O)N1 (stereo not shown) [Compound 1353, 1-(3,5-dimethyl-4-{2-[4-oxo-2-(3-propyl-nonyl)-1,3,8-triaza-spiro[4.5]dec-1-ene-8-sulfonyl]-ethyl}-phenyl)-1-methyl-urea] | 111 |
| Cc1noc(C)c1-c1ccccc1CCS(=O)(=O)N1CCC2(CC1)N=C(C1CCCCC1)NC2=O [Compound 338, 2-Cyclohexyl-8-{2-[2-(3,5-dimethyl-isoxazol-4-yl)-phenyl]-ethanesulfonyl}-1,3,8-triaza-spiro[4.5]dec-1-en-4-one] | 60 |
| Cc1cc(CNC(N)=O)cc(C)c1CCS(=O)(=O)N1CCC2(CC1)N=C(C1CCC(C)CC1)NC2=O (stereo not shown) [Compound 1314, (3,5-dimethyl-4-{2-[2-(4-methyl-cyclohexyl)-4-oxo-1,3,8-triaza-spiro[4.5]dec-1-ene-8-sulfonyl]-ethyl}-benzyl)-urea] | 78 |
| Cc1cc(OC[C@H](O)CO)cc(C)c1CCS(=O)(=O)N1CCC2(CC1)N=C(C1CCC(CCC(F)(F)F)CC1)NC2=O (stereo partly drawn) [Compound 821, 8-{2-[4-((R)-2,3-dihydroxy-propoxy)-2,6-dimethyl-phenyl]-ethanesulfonyl}-2-[4-(3,3,3-trifluoro-propyl)-cyclohexyl]-1,3,8-triaza-spiro[4.5]dec-1-en-4-one] | 82 |
| CCCCCCCCCC1=NC2(CCN(S(=O)(=O)CCc3c(C)cc(N4C(=O)CNC4=O)cc3C)CC2)C(=O)N1 [Compound 832, 3-{3,5-dimethyl-4-[2-(2-nonyl-4-oxo-1,3,8-triaza-spiro[4.5]dec-1-ene-8-sulfonyl)-ethyl]-phenyl}-imidazolidine-2,4-dione] | 84 |
| Cc1cc(N(C)C(N)=O)c(C)cc1CCS(=O)(=O)N1CCC2(CC1)N=C(C1CCC(C)CC1)NC2=O (stereo not shown) [Compound 680, 1-(2,5-dimethyl-4-{2-[2-(4-methyl-cyclohexyl)-4-oxo-1,3,8-triaza-spiro[4.5]dec-1-ene-8-sulfonyl]-ethyl}-phenyl)-1-methyl-urea] | 101 |
| Cc1cc(C(=O)N2CCC(O)(CF)CC2)cc(C)c1/C=C/S(=O)(=O)N1CCC2(CC1)N=C(c1ccc(OCC(F)(F)F)c(F)c1)NC2=O [Compound 1260, 8-{(E)-2-[4-(4-fluoromethyl-4-hydroxy-piperidine-1-carbonyl)-2,6-dimethyl-phenyl]-ethenesulfonyl}-2-[3-fluoro-4-(2,2,2-trifluoro-ethoxy)-phenyl]-1,3,8-triaza-spiro[4.5]dec-1-en-4-one] | 81 |
| Cc1c(CCS(=O)(=O)N2CCC3(CC2)N=C(c2cccc(OC(F)(F)F)c2)NC3=O)cccc1C(N)=O [Compound 410, 2-methyl-3-{2-[4-oxo-2-(3-trifluoromethoxy-phenyl)-1,3,8-triaza-spiro[4.5]dec-1-ene-8-sulfonyl]-ethyl}-benzamide] | 96 |
| CC(C)(C)OC(=O)N1CCCC(C2=NC3(CCN(S(=O)(=O)c4cccc(Cl)c4)CC3)C(=O)N2)C1 (stereo not shown) [Compound 18, 3-[8-(3-chloro-benzenesulfonyl)-4-oxo-1,3,8-triaza-spiro[4.5]dec-1-en-2-yl]-piperidine-1-carboxylic acid tert-butyl ester] | 44 |
| Cc1cc(S(=O)(=O)NC2CCC(O)CC2)ccc1CCS(=O)(=O)N1CCC2(CC1)N=C(c1cccc(C(F)(F)F)c1)NC2=O (stereo not shown) [Compound 853, N-(4-hydroxy-cyclohexyl)-3-methyl-4-{2-[4-oxo-2-(3-trifluoromethyl-phenyl)-1,3,8-triaza-spiro[4.5]dec-1-ene-8-sulfonyl]-ethyl}-benzenesulfonamide] | 63 |
| Cc1cc(C(=O)N(C)C)ccc1CCS(=O)(=O)N1CCC2(CC1)N=C(c1cccc(Cl)c1C)NC2=O [Compound 133, 4-{2-[2-(3-chloro-2-methyl-phenyl)-4-oxo-1,3,8-triaza-spiro[4.5]dec-1-ene-8-sulfonyl]-ethyl}-3,N,N-trimethyl-benzamide] | 82 |
| CC(C)(C)OC(=O)NCc1ccc(CCS(=O)(=O)N2CCC3(CC2)N=C(C2CCCCC2)NC3=O)c(C(F)(F)F)c1 [Compound 272, {4-[2-(2-cyclohexyl-4-oxo-1,3,8-triaza-spiro[4.5]dec-1-ene-8-sulfonyl)-ethyl]-3-trifluoromethyl-benzyl}-carbamic acid tert-butyl ester] | 67 |
| Cc1cc(N(C)C(N)=O)cc(C)c1CCS(=O)(=O)N1CCC2(CC1)N=C(CCCCCCCCCCCCCC(=O)O)NC2=O [Compound 1350, 14-(8-{2-[2,6-dimethyl-4-(1-methyl-ureido)-phenyl]-ethanesulfonyl}-4-oxo-1,3,8-triaza-spiro[4.5]dec-1-en-2-yl)-tetradecanoic acid] | 22 |
| Cc1cc(CC(N)=O)ccc1/C=C/S(=O)(=O)N1CCC2(CC1)N=C(C1CCC(C)CC1)NC2=O (stereo not shown) [Compound 737, 2-(3-Methyl-4-{(E)-2-[2-(4-methyl-cyclohexyl)-4-oxo-1,3,8-triaza-spiro[4.5]dec-1-ene-8-sulfonyl]-vinyl}-phenyl)-acetamide] | 96 |
| CC(=O)Nc1ccc(-c2ccc(S(=O)(=O)N3CCC4(CC3)N=C(C3CCCCC3)NC4=O)s2)c(C)c1 [Compound 332, N-{4-[5-(2-cyclohexyl-4-oxo-1,3,8-triaza-spiro[4.5]dec-1-ene-8-sulfonyl)-thiophen-2-yl]-3-methyl-phenyl}-acetamide] | 90 |
| Cc1cc(N2C(=O)CC[C@H]2CO)ccc1/C=C/S(=O)(=O)N1CCC2(CC1)N=C(c1ccc(F)c(C(F)(F)F)c1)NC2=O [Compound 621, 2-(4-fluoro-3-trifluoromethyl-phenyl)-8-{(E)-2-[4-((S)-2-hydroxymethyl-5-oxo-pyrrolidin-1-yl)-2-methyl-phenyl]-ethenesulfonyl}-1,3,8-triaza-spiro[4.5]dec-1-en-4-one] | 80 |
| CC(=O)Nc1ccc(CCS(=O)(=O)N2CCC3(CC2)N=C(C2CCC(=CCCF)CC2)NC3=O)c(C)c1 (stereo not shown) [Compound 1066, N-[4-(2-{2-[4-(3-Fluoro-propylidene)-cyclohexyl]-4-oxo-1,3,8-triaza-spiro[4.5]dec-1-ene-8-sulfonyl}-ethyl)-3-methyl-phenyl]-acetamide] | 83 |
